The values below come from US9751858B2, “3-heteroaroylamino-propionic acid derivatives and their use as pharmaceuticals” (SANOFI, priority 2011, dated 2017).

The structures appear in SMILES notation.

The target in this experiment is T1, Recombinant human cathepsin A (Homo sapiens, UniProt P10619).
T1 construct: Recombinant human cathepsin A (residues 29-480, with a C-terminal 10-His tag); 10-His (C); purchased R&D Systems 1049-SE
T1 sequence (P10619 29-326 limits assumed): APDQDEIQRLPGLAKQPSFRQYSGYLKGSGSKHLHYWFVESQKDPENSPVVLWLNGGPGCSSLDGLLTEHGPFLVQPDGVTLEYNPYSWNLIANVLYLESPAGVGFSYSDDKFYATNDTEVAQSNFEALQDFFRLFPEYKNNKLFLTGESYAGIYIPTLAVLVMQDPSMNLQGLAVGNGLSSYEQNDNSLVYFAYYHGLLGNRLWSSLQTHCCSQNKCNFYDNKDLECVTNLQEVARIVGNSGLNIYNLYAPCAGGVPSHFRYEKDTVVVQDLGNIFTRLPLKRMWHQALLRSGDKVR
T1 sequence (P10619 327-480 limits assumed): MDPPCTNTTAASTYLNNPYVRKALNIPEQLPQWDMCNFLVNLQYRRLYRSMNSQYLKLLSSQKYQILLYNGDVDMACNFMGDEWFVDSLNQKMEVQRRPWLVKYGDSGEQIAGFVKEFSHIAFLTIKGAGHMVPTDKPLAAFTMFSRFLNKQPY
Briefly: Cathepsin A inhibitory activity. Particulars: activated recombinant human cathepsin A 833 ng/ml, Bodipy FL-labeled bradykinin 2 μM, pH 5.5, 15 min room temperature. Format: biochemical. On the procedure: a) Cathepsin a Inhibitory Activity
Briefly, cathepsin A was incubated at 10 μg/ml with cathepsin L at 1 μg/ml in activation buffer (25 mM 2-(morpholin-4-yl)-ethanesulfonic acid (MES), pH 6.0, containing 5 mM dithiothreitol (DTT)) for 15 min at 37° C.
The activated cathepsin A was diluted in assay buffer (25 mM MES, pH 5.5, containing 5 mM DTT) and mixed with the test compound (dissolved in assay buffer containing (v/v) 3% DMSO) or, in the control experiments, with the vehicle in a multiple assay plate. After incubation for 15 min at room temperature, as substrate then bradykinin carrying an N-terminal ®Bodipy FL (4,4-difluoro-5,7-dimethyl-4-bora-3a,4a-diaza-s-indacene-3-propionyl) label (JPT Peptide Technologies GmbH; dissolved in assay buffer) was added to the mixture. […] After incubation for 15 min at room temperature the reaction was stopped by the addition of stop buffer (130 mM 2-(4-(2-hydroxy-ethyl)-piperazin-1-yl)-ethanesulfonic acid, pH 7.4, containing (v/v) 0.013%® Triton X-100, 0.13% Coating Reagent 3 (Caliper Life Sciences), 6.5% DMSO and 20 μM ebelactone B (Sigma, # E0886)).
Uncleaved substrate and product were then separated by a microfluidic capillary electrophoresis on a LabChip® 3000 Drug Discovery System (12-Sipper-Chip; Caliper Life Sciences) and quantified by determination of the respective peak areas. Substrate turnover was calculated by dividing product peak area by the sum of substrate and product peak areas, and the enzyme activity and the inhibitory effect of the test compound thus quantified.

The term IC50 denotes the concentration at which inhibition is half-maximal.

Regarding `O=C(O)C[C@H](NC(=O)CCc1nc(-c2ccccc2F)no1)c1cccc(Cl)c1Cl` [Example 112, (S)-3-(2,3-Dichloro-phenyl)-3-{3-[3-(2-fluoro-phenyl)-[1,2,4]oxadiazol-5-yl]-propionylamino}-propionic acid], the IC50 was over 10000 nM.
In the case of `Cc1oc(-c2ccccc2F)nc1C(=O)N[C@@H](CC(=O)O)c1cccc(F)c1` [Example 36, (S)-3-(3-Fluoro-phenyl)-3-{[2-(2-fluoro-phenyl)-5-methyl-oxazole-4-carbonyl]-amino}-propionic acid] it was 198 nM; in that of `C[C@@](CC(=O)O)(NC(=O)c1noc(-c2cccc(F)c2F)n1)c1ccccc1` [Example 40, (S)-3-{[5-(2,3-Difluoro-phenyl)-[1,2,4]oxadiazole-3-carbonyl]-amino}-3-phenyl-butyric acid], 1940 nM; in that of `Cc1ccccc1[C@H](CC(=O)O)NC(=O)c1nc(-c2ccccc2)oc1C` [Example 5, (S)-3-[(5-Methyl-2-phenyl-oxazole-4-carbonyl)-amino]-3-o-tolyl-propionic acid], 251 nM.
In the case of `Cc1ccccc1[C@H](CC(=O)O)NC(=O)c1c[nH]c(-c2ccccc2)n1` [Example 1, (S)-3-[(2-Phenyl-1H-imidazole-4-carbonyl)-amino]-3-o-tolyl-propionic acid] it was 213 nM; in that of `O=C(O)C[C@H](NC(=O)c1nc(-c2ccccc2)n(-c2ccccc2)n1)c1ccccc1Cl` [Example 106, (S)-3-(2-Chloro-phenyl)-3-[(1,5-diphenyl-1H-[1,2,4]triazole-3-carbonyl)-amino]-propionic acid], 119 nM.
With `Cc1oc(-c2ccccc2F)nc1C(=O)N[C@@H](CC(=O)O)c1cccc(Cl)c1Cl` [Example 94, (S)-3-(2,3-Dichloro-phenyl)-3-{[2-(2-fluoro-phenyl)-5-methyl-oxazole-4-carbonyl]-amino}-propionic acid] the figure was 514 nM; with `C[C@@](CC(=O)O)(NC(=O)CCc1nc(-c2ccccc2F)no1)c1ccccc1` [Example 51, (S)-3-{3-[3-(2-Fluoro-phenyl)-[1,2,4]oxadiazol-5-yl]-propionylamino}-3-phenyl-butyric acid], over 10000 nM; with `COc1cccc([C@H](CC(=O)O)NC(=O)c2nc(-c3ccccc3)oc2C)c1OC` [Example 66, (S)-3-(2,3-Dimethoxy-phenyl)-3-[(5-methyl-2-phenyl-oxazole-4-carbonyl)-amino]-propionic acid], 12500 nM.
`CCc1nc(C(=O)N[C@@H](CC(=O)O)c2ccc(C)cc2)nn1-c1ccccc1Cl` [Example 71, (S)-3-{[1-(2-Chloro-phenyl)-5-ethyl-1H-[1,2,4]triazole-3-carbonyl]-amino}-3-p-tolyl-propionic acid]: the half-maximal inhibitory concentration (IC50) was found to be 492 nM.
With `CC(C)c1oc(-c2ccccc2)nc1C(=O)N[C@@H](CC(=O)O)c1ccccc1F` [Example 47, (S)-3-(2-Fluoro-phenyl)-3-[(5-isopropyl-2-phenyl-oxazole-4-carbonyl)-amino]-propionic acid] the figure was 2180 nM; with `O=C(O)C[C@H](NC(=O)c1noc(-c2cccc(F)c2F)n1)c1ccccc1F` [Example 43, (S)-3-{[5-(2,3-Difluoro-phenyl)-[1,2,4]oxadiazole-3-carbonyl]-amino}-3-(2-fluoro-phenyl)-propionic acid], 107 nM.
With `CCCc1nc(C(=O)N[C@@H](CC(=O)O)c2ccc(C)cc2)nn1-c1ccccc1Cl` [Example 88, (S)-3-{[1-(2-Chloro-phenyl)-5-propyl-1H-[1,2,4]triazole-3-carbonyl]-amino}-3-p-tolyl-propionic acid] the figure was 335 nM.
In the case of `Cc1ccccc1[C@H](CC(=O)O)NC(=O)c1cc(-c2ccccc2)n(Cc2ccc(F)cc2)n1` [Example 118, (S)-3-{[1-(4-Fluoro-benzyl)-5-phenyl-1H-pyrazole-3-carbonyl]-amino}-3-o-tolyl-propionic acid] it was 1540 nM; in that of `Cc1ccc([C@H](CC(=O)O)NC(=O)CCc2nc(-c3ccccc3F)no2)cc1` [Example 52, (S)-3-{3-[3-(2-Fluoro-phenyl)-[1,2,4]oxadiazol-5-yl]-propionylamino}-3-p-tolyl-propionic acid], over 10000 nM; in that of `O=C(O)C[C@H](NC(=O)CCc1nc(-c2ccccc2F)no1)c1cccc(F)c1` [Example 60, (S)-3-(3-Fluoro-phenyl)-3-{3-[3-(2-fluoro-phenyl)-[1,2,4]oxadiazol-5-yl]-propionylamino}-propionic acid], 22400 nM.
Consider `Cc1ccc([C@H](CC(=O)O)NC(=O)c2nc(C(C)C)n(-c3ccccc3Cl)n2)cc1` [Example 85, (S)-3-{[1-(2-Chloro-phenyl)-5-isopropyl-1H-[1,2,4]triazole-3-carbonyl]-amino}-3-p-tolyl-propionic acid], for which the 50% inhibitory concentration (IC50) was found to be 280 nM.
In the case of `O=C(O)C[C@H](NC(=O)c1nc(-c2ccccc2)n(-c2ccccc2)n1)c1ccc(Cl)cc1Cl` [Example 125, (S)-3-(2,4-Dichloro-phenyl)-3-[(1,5-diphenyl-1H-[1,2,4]triazole-3-carbonyl)-amino]-propionic acid] it was 241 nM; in that of `Cc1oc(-c2ccccc2)nc1C(=O)N[C@@H](CC(=O)O)c1ccc(Cl)cc1Cl` [Example 75, (S)-3-(2,4-Dichloro-phenyl)-3-[(5-methyl-2-phenyl-oxazole-4-carbonyl)-amino]-propionic acid], 1750 nM.
With `O=C(O)C[C@H](NC(=O)c1noc(-c2ccccc2F)n1)c1cccc(C(F)(F)F)c1` [Example 81, (S)-3-{[5-(2-Fluoro-phenyl)-[1,2,4]oxadiazole-3-carbonyl]-amino}-3-(3-trifluoromethyl-phenyl)-propionic acid] the figure was over 10000 nM.
With `O=C(O)C[C@H](NC(=O)c1nc(-c2ccccc2)n(-c2ccccc2)n1)c1cccc(Cl)c1Cl` [Example 124, (S)-3-(2,3-Dichloro-phenyl)-3-[(1,5-diphenyl-1H-[1,2,4]triazole-3-carbonyl)-amino]-propionic acid] the figure was 50.9 nM; with `Cc1ccccc1[C@H](CC(=O)O)NC(=O)c1nc(C(C)C)n(-c2ccccc2Cl)n1` [Example 87, (S)-3-{[1-(2-Chloro-phenyl)-5-isopropyl-1H-[1,2,4]triazole-3-carbonyl]-amino}-3-o-tolyl-propionic acid], 95 nM; with `Cc1oc(-c2ccccc2)nc1C(=O)N[C@@H](CC(=O)O)c1cccc(F)c1` [Example 8, (S)-3-(3-Fluoro-phenyl)-3-[(5-methyl-2-phenyl-oxazole-4-carbonyl)-amino]-propionic acid], 5310 nM.
Turning to `Cc1oc(-c2ccccc2F)nc1C(=O)N[C@@H](CC(=O)O)c1cccc(C(F)(F)F)c1` [Example 92, (S)-3-{[2-(2-Fluoro-phenyl)-5-methyl-oxazole-4-carbonyl]-amino}-3-(3-trifluoromethyl-phenyl)-propionic acid], the IC50 came out at 1140 nM.
With `Cc1ccc([C@H](CC(=O)O)NC(=O)c2nc(C3CC3)n(-c3ccccc3Cl)n2)cc1` [Example 83, (S)-3-{[1-(2-Chloro-phenyl)-5-cyclopropyl-1H-[1,2,4]triazole-3-carbonyl]-amino}-3-p-tolyl-propionic acid] the figure was over 10000 nM.
